Patent US20100184767A1, “SUBSTITUTED OXAZOLIDINONES AND USE THEREOF” (priority 2007, published 2010)

Biological target: human factor Xa (FXa) (Homo sapiens, UniProt P00742)
Experiment: Factor Xa inhibition, fluorogenic assay
Type: biochemical
Settings: fluorogenic substrate Boc-Ile-Glu-Gly-Arg-AMC, human FXa 1.3 nmol/l, pH 7.4, 22° C.
Experimental: The enzymatic activity of human factor Xa (FXa) is measured using the conversion of a fluorogenic substrate specific for FXa. FXa cleaves aminomethylcoumarin, whose fluorescence is measured, from the peptidic substrate. The determinations are carried out in microtitre plates.
Substances to be tested, in various concentrations, are dissolved in dimethyl sulphoxide and incubated for 15 min at 22° C. with human FXa (1.3 nmol/l dissolved in 50 mmol/l of Tris buffer [C,C,C-tris(hydroxymethyl)aminomethane], 100 mmol/l NaCl, 0.1% BSA [bovine serum albumin], pH 7.4). The fluorogenic substrate (5 μmol/l of Boc-Ile-Glu-Gly-Arg-AMC from Bachem) is then added. After an incubation time of 30 min, the sample is excited at a wavelength of 360 nm, and the emission at 460 nm is measured. The measured emissions of the test batches with test substance are compared to the control batches without test substance (only dimethyl sulphoxide instead of test substance in dimethyl sulphoxide), and IC50 values are calculated from the concentration/activity relationships.

human factor Xa (FXa), sequence (P00742 235-488 limits assumed): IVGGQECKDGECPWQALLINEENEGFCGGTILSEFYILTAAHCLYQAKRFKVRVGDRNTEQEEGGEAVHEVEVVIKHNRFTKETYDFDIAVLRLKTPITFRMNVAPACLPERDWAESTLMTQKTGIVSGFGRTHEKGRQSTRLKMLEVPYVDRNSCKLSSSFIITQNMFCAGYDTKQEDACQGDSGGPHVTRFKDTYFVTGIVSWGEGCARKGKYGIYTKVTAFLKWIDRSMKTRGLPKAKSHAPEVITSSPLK
human factor Xa (FXa), sequence (P00742 41-179 partner limits assumed): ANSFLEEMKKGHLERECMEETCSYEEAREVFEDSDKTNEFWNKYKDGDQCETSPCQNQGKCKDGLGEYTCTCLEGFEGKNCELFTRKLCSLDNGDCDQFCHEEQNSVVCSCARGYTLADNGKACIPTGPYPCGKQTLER

| IC50 [nM] | Structure (SMILES) |
| --- | --- |
| 0.9 | O=C(NC[C@H]1CN(c2ccc(N3CCOCC3=O)cc2F)C(=O)O1)c1ccc(Cl)s1 [Example 1, 5-Chloro-N-({(5S)-3-[2-fluoro-4-(3-oxomorpholin-4-yl)phenyl]-2-oxo-1,3-oxazolidin-5-yl}methyl)thiophene-2-carboxamide] |
| 2.2 | O=C(NC[C@H]1CN(c2ccc(N3CCCCC3=O)cc2F)C(=O)O1)c1ccc(Cl)s1 [Example 11, 5-Chloro-N-({(5S)-3-[2-fluoro-4-(2-oxopiperidin-1-yl)phenyl]-2-oxo-1,3-oxazolidin-5-yl}methyl)thiophene-2-carboxamide] |
| 1.8 | O=C(NC[C@H]1CN(c2ccc(N3CCOCC3=O)cc2Cl)C(=O)O1)c1ccc(Cl)s1 [Example 12, 5-Chloro-N-({(5S)-3-[2-chloro-4-(3-oxomorpholin-4-yl)phenyl]-2-oxo-1,3-oxazolidin-5-yl}methyl)thiophene-2-carboxamide] |
| 0.9 | O=C(NC[C@H]1CN(c2ccc(-n3cccc(CO)c3=O)cc2F)C(=O)O1)c1ccc(Cl)s1 [Example 22, 5-Chloro-N-{[(5S)-3-{2-fluoro-4-[3-(hydroxymethyl)-2-oxopyridin-1(2H)-yl]phenyl}-2-oxo-1,3-oxazolidin-5-yl]methyl}thiophene-2-carboxamide] |
